Reference: patent US10517889B2, “Modulators of SMAD7 expression” (Ionis Pharmaceuticals, Inc., priority 2017, dated 2019)
Strand notation (5' to 3'): a small letter for the sugar, then the base; units joined by * are phosphorothioate-linked, units joined directly phosphodiester-linked; [ ] holds rarer units or linkages, { } end groups; capitals alone tell only the bases. e = 2'-O-(2-methoxyethyl) (MOE); [5mC] = 5-methylcytosine; d = 2'-deoxy (DNA)

Legend:
human SMAD7 mRNA [1] = assay: Antisense inhibition of human SMAD7 mRNA expression in Hep3B cells by 5-10-5 MOE gapmers, single concentration, electroporation, RT-PCR (Example 1, Study 1 and 2); format: cell-based; settings: for % Inhibition of SMAD7 mRNA: electroporation with 15,000 nM antisense oligonucleotide (Study 2)
In short: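 Readout is percent SMAD7 mRNA inhibition versus untreated cells, measured by qRT-PCR (RTS5062) and corrected for total RNA by RIBOGREEN. Oligonucleotide, 5,000 nM or 15,000 nM, was delivered by electroporation into Hep3B cells at 20,000 per well. RNA was collected about 24 h later.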

human SMAD7 mRNA [2] = assay: Dose-dependent inhibition of human SMAD7 mRNA expression in Hep3B cells (Example 3, Study 1 and 2); format: cell-based; settings: electroporation; for % inhibition of SMAD7 mRNA expression: approximately 16 hours; for IC50: Study 1 (312.5-20000 nM)
In short: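 Hep3B cells, 20,000 per well, electroporated with antisense oligonucleotide at 0.31, 1.25, 5.00 or 20.00 μM (first series) or 0.74, 2.22, 6.67 or 20.00 μM (second series). After ~16 h, SMAD7 mRNA measured by RT-qPCR (RTS5062), normalised to RIBOGREEN total RNA. Percent inhibition vs untreated cells; IC50 derived.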

[3] = electroporation, 15,000 nM antisense oligonucleotide (Study 2), 5-10-5 MOE gapmers targeting SEQ ID NO: 1 and 2
[4] = 312.5 nM, Study 1, relative to untreated control cells
[5] = Study 2, electroporation with 15,000 nM antisense oligonucleotide, 5-10-5 MOE gapmers targeting SEQ ID NO: 1 and 2
[6] = electroporation, 15,000 nM, approximately 24 hours, relative to untreated control cells, gapmers targeting SEQ ID NO: 1 and 2
[7] = 5-10-5 MOE gapmers targeting SEQ ID NO: 1 and 2

Row | Substance | % inhibition of SMAD7 mRNA expression (human SMAD7 mRNA [1]; [3]) [%] | % inhibition of SMAD7 mRNA expression (human SMAD7 mRNA [2]; [4]) [%] | % inhibition of SMAD7 mRNA expression (human SMAD7 mRNA [2]; 1250.0 nM, Study 1) [%] | % inhibition of SMAD7 mRNA expression (human SMAD7 mRNA [2]; 5000.0 nM, Study 1) [%] | % inhibition of SMAD7 mRNA expression (human SMAD7 mRNA [2]; 20000.0 nM, Study 1) [%] | IC50 (human SMAD7 mRNA [2]) [µM] | % Inhibition (human SMAD7 mRNA [1]; [5]) [%] | % inhibition of SMAD7 mRNA expression (human SMAD7 mRNA [1]; [6]) [%] | % Inhibition of SMAD7 mRNA (human SMAD7 mRNA [1]; [7]) [%] | % inhibition of SMAD7 mRNA expression (human SMAD7 mRNA [1]; electroporation, 5,000 nM, approximately 24 hours, relative to untreated control cells, gapmers targeting SEQ ID NO: 1 and 2) [%] | % inhibition of SMAD7 mRNA expression (human SMAD7 mRNA [1]; [5]) [%]
1 | 771403 (antisense eG*eA*eA*e[5mC]*eA*dT*dG*dA*d[5mC]*d[5mC]*dT*d[5mC]*d[5mC]*dG*d[5mC]*eA*e[5mC]*eA*e[5mC]*e[5mC]) [compound 771403] | 62 | 5 | 4 | 25 | 35 | > 20 |  |  |  |  | 
2 | 771407 (antisense eA*eG*eG*eA*eG*d[5mC]*dG*dA*dA*d[5mC]*dA*dT*dG*dA*d[5mC]*e[5mC]*eT*e[5mC]*e[5mC]*eG) [compound 771407] |  | 17 | 0 | 30 | 46 | > 20 | 59 |  |  |  | 
3 | 771414 (eT*e[5mC]*eG*eG*e[5mC]*dT*dG*dT*d[5mC]*d[5mC]*dG*dT*d[5mC]*dG*d[5mC]*e[5mC]*e[5mC]*e[5mC]*eT*eT; antisense) [compound 771414] |  | 0 | 2 | 43 | 33 | > 20 |  | 65 |  |  | 
4 | 771416 (e[5mC]*e[5mC]*e[5mC]*e[5mC]*eA*dT*dG*d[5mC]*dG*d[5mC]*dT*d[5mC]*dG*dG*d[5mC]*eT*eG*eT*e[5mC]*e[5mC]; antisense) [compound 771416] |  | 0 | 3 | 19 | 35 | > 20 | 58 |  |  |  | 
5 | 771418 (e[5mC]*e[5mC]*eG*e[5mC]*e[5mC]*dA*d[5mC]*d[5mC]*dG*dG*d[5mC]*d[5mC]*d[5mC]*d[5mC]*dA*eT*eG*e[5mC]*eG*e[5mC]; antisense) [compound 771418] | 60 | 3 | 0 | 0 | 0 |  |  |  |  |  | 
6 | 771439 (eG*eG*e[5mC]*eT*eG*d[5mC]*dG*d[5mC]*dG*d[5mC]*d[5mC]*dG*dG*d[5mC]*dG*eG*eG*e[5mC]*eG*e[5mC]; antisense) [compound 771439] |  | 0 | 24 | 49 | 55 | 9 | 48 |  |  |  | 
7 | 771441 (e[5mC]*eG*eA*eG*eG*dG*d[5mC]*dG*dG*d[5mC]*dT*dG*d[5mC]*dG*d[5mC]*eA*eG*eG*e[5mC]*eT; antisense) [compound 771441] | 10 | 0 | 5 | 45 | 64 | 9 |  |  | 60 |  | 
8 | 771444 (eA*eG*e[5mC]*e[5mC]*eT*d[5mC]*dT*dT*dG*dA*d[5mC]*dT*dT*d[5mC]*d[5mC]*eG*eA*eG*eG*eA; antisense) [compound 771444] |  | 0 | 0 | 9 | 29 | > 20 | 67 |  |  | 65 | 
9 | 771461 (antisense eG*eT*eA*eG*eA*dG*d[5mC]*d[5mC]*dT*d[5mC]*d[5mC]*d[5mC]*d[5mC]*dA*d[5mC]*eT*e[5mC]*eT*e[5mC]*eG) [compound 771461] |  | 0 | 2 | 11 | 39 | > 20 | 37 |  |  |  | 
10 | 771464 (antisense eG*eA*eG*eA*eG*dG*dG*d[5mC]*dT*d[5mC]*d[5mC]*dT*dG*dG*dA*e[5mC]*eA*e[5mC]*eA*eG) [compound 771464] |  | 11 | 8 | 21 | 50 | > 20 | 55 |  |  |  | 
11 | 771474 (antisense eG*e[5mC]*eA*eG*e[5mC]*d[5mC]*dG*dA*dT*dT*dT*dT*dG*d[5mC]*dT*e[5mC]*e[5mC]*eG*e[5mC]*eA) [compound 771474] | 56 | 3 | 4 | 21 | 52 | 17 |  |  |  |  | 
12 | 771479 (antisense eG*eG*eG*eA*eA*d[5mC]*dA*d[5mC]*d[5mC]*dT*dT*dG*dT*dG*dT*eA*e[5mC]*e[5mC]*eA*eA) [compound 771479] |  | 0 | 8 | 49 | 74 | 7 |  |  |  |  | 58
13 | 771487 (antisense e[5mC]*eT*eG*e[5mC]*eA*d[5mC]*dG*dG*dT*dA*dA*dA*dG*d[5mC]*d[5mC]*e[5mC]*eG*eT*e[5mC]*e[5mC]) [compound 771487] |  | 4 | 0 | 7 | 26 | > 20 |  |  |  |  | 45
14 | 771506 (antisense eG*e[5mC]*eT*e[5mC]*eA*dG*d[5mC]*dT*d[5mC]*dA*d[5mC]*dG*d[5mC]*dT*d[5mC]*eT*eG*eT*e[5mC]*e[5mC]) [compound 771506] | 53 | 54 | 1 | 5 | 44 | > 20 |  |  |  |  | 
15 | 771509 (antisense eG*eG*e[5mC]*e[5mC]*eT*dG*d[5mC]*dT*d[5mC]*dA*dG*d[5mC]*dT*d[5mC]*dA*e[5mC]*eG*e[5mC]*eT*e[5mC]) [compound 771509] |  | 0 | 0 | 13 | 47 | > 20 |  | 65 |  |  | 
16 | 771552 (antisense e[5mC]*eT*eT*eG*eG*dA*dT*dT*dT*d[5mC]*dT*dG*d[5mC]*dT*dT*e[5mC]*e[5mC]*e[5mC]*e[5mC]*eT) [compound 771552] | 28 | 2 | 25 | 20 | 45 | > 20 |  |  | 53 |  | 
17 | 771556 (antisense e[5mC]*e[5mC]*e[5mC]*eT*eT*d[5mC]*dA*dT*dA*d[5mC]*dA*d[5mC]*dT*dG*dT*eG*eT*eT*eT*eG) [compound 771556] |  | 1 | 0 | 9 | 33 | > 20 |  |  |  |  | 30
18 | 771570 (antisense eT*eG*eG*eG*eA*d[5mC]*dT*dG*d[5mC]*dA*dA*dA*d[5mC]*d[5mC]*dT*e[5mC]*eT*e[5mC]*eT*eG) [compound 771570] | 60 | 0 | 0 | 43 | 48 | > 20 |  |  |  |  | 
19 | 771572 (antisense e[5mC]*eT*eT*eG*eG*dG*dA*d[5mC]*dT*dG*d[5mC]*dA*dA*dA*d[5mC]*e[5mC]*eT*e[5mC]*eT*e[5mC]) [compound 771572] |  | 0 | 10 | 38 | 13 | > 20 |  |  |  |  | 37
20 | 771573 (antisense eG*e[5mC]*eT*eT*eG*dG*dG*dA*d[5mC]*dT*dG*d[5mC]*dA*dA*dA*e[5mC]*e[5mC]*eT*e[5mC]*eT) [compound 771573] |  | 0 | 5 | 24 | 56 | 18 |  | 65 |  |  | 
21 | 771574 (antisense e[5mC]*eG*e[5mC]*eT*eT*dG*dG*dG*dA*d[5mC]*dT*dG*d[5mC]*dA*dA*eA*e[5mC]*e[5mC]*eT*e[5mC]) [compound 771574] |  | 0 | 5 | 36 | 58 | 13 |  |  |  |  | 66
